Drawing on patent US20250368648A1, “MULTI-CYCLIC IRAK AND FLT3 INHIBITING COMPOUNDS AND USES THEREOF” (CHILDREN'S HOSPITAL MEDICAL CENTER, priority 2022, published 2025), this text covers IC50 for ten molecules.

Each structure is given as a SMILES string.

What all share (format): biochemical
What all share (conditions): HotSpot functional assay, isolated kinase enzyme, 33P-ATP

The target of one assay is T1, IRAK1 (Homo sapiens, UniProt P51617).
T1 construct: purchased RBC (Reaction Biology) HotSpot assay
T1 sequence (P51617 whole entry): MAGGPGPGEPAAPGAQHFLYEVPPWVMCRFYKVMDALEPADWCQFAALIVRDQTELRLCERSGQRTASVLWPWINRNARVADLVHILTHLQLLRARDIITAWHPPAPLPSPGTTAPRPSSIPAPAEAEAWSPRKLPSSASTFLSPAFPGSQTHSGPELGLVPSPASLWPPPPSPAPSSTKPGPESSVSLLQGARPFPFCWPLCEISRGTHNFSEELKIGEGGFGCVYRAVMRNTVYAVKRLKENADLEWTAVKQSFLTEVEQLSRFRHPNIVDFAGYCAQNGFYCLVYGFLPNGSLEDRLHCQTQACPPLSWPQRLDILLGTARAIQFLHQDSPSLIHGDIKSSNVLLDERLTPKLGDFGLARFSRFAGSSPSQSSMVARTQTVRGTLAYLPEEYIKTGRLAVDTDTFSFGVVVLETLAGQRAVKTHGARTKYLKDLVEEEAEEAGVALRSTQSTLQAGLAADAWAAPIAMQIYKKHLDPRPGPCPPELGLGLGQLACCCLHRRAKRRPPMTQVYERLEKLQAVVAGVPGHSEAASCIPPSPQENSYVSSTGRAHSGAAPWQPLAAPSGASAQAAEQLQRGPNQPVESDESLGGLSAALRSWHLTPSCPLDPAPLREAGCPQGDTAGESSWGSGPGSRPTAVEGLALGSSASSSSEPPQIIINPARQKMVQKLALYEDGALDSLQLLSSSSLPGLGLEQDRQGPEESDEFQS
The assay can be described thus: RBC HotSpot Kinase Assay, IRAK1. The source says:
(§1) This assay uses the isolated kinase enzyme. This assay is very useful for determining competition of the inhibitor for ATP and/or substrates and for measuring the kinetics of enzyme inhibition. […] Unlike kinase binding assays that measure competition for ATP, the HotSpot Kinase Assay is a functional assay that measures catalytic activity; as such it measures relative functional potency regardless of the mechanism of enzyme inhibition. This assay uses the form of the various enzymes that are easiest to express, which may not necessarily be the form of the enzyme that exist in the cell. (Sometimes the carboxy terminus has been truncated to aid in expression, or, if it is a receptor kinase, the enzyme itself is isolated from the other parts of the receptor that are involved in regulating kinase activity.)
(§2) The reagent used was as follows: Base Reaction buffer; 20 mM Hepes (pH 7.5), 10 mM MgCl2, 1 mM EGTA, 0.01% Brij35, 0.02 mg/mi BSA, 0.1 mM Na3VO4, 2 mM DTT, 1% DMSO. Required cofactors were added individually to each kinase reaction.
(§3) The reaction procedure was as follows: • 1) Substrates were prepared in freshly prepared Reaction Buffer. • 2) Any required cofactors were delivered to the substrate solution above. • 3) Kinase was delivered into the substrate solution and gently mixed. • 4) Compounds were delivered in 100% DMSO into the kinase reaction mixture by Acoustic technology (Echo550, nanoliter range), followed by incubation for 20 min at room temp. • 5) ^33P-ATP was delivered into the reaction mixture to initiate the reaction. • 6) The mixture was incubated for 2 hours at room temperature. • 7) Kinase activity was detected by P81 filter-binding method.

A further assay concerns the target T2, IRAK4 (Homo sapiens, UniProt Q9NWZ3).
T2 sequence (Q9NWZ3 1-460): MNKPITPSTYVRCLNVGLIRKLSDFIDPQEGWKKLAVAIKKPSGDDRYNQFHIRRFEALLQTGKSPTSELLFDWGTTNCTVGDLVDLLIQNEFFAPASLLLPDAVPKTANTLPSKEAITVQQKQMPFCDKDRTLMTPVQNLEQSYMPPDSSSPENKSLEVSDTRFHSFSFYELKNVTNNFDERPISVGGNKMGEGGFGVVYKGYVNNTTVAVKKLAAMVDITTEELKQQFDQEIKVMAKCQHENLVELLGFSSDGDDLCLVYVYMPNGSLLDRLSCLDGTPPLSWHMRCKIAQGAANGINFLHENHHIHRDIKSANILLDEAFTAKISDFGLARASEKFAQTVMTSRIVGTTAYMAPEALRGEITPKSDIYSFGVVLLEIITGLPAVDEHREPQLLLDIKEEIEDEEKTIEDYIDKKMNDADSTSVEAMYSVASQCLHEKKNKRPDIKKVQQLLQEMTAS
The assay can be described thus: RBC HotSpot Kinase Assay, IRAK4. Also noted: purchased RBC (Reaction Biology) HotSpot assay.
From the text: as §1, §2, §3

Another assay addresses T3, FLT3 (Homo sapiens, UniProt P36888).
T3 sequence (P36888 27-993): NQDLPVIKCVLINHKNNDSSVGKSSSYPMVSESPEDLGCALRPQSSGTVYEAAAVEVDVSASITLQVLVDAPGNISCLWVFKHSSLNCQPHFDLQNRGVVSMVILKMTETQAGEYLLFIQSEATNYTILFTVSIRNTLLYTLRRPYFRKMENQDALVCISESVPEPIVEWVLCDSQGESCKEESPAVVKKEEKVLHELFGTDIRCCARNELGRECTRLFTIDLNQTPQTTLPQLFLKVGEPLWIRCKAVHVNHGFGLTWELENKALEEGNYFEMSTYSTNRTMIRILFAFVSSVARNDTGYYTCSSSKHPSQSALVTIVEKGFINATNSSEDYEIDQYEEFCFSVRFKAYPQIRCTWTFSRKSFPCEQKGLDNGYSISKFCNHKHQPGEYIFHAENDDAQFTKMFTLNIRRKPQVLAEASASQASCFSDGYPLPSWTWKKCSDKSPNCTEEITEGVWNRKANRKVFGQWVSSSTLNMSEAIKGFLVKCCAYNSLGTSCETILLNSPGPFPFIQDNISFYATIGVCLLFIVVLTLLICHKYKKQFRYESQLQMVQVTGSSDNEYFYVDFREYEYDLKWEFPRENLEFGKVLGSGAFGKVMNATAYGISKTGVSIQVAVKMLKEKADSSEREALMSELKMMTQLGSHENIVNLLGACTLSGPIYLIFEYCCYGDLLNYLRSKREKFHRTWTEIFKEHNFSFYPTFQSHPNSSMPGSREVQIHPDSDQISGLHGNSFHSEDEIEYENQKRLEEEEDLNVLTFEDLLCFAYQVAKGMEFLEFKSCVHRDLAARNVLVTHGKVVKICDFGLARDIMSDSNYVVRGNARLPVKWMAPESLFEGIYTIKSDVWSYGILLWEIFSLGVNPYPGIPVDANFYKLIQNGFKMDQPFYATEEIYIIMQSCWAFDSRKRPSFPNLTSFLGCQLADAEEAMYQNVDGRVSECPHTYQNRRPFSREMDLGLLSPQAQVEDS
The experiment in a line: RBC HotSpot Kinase Assay, FLT3. Set-up: purchased RBC (Reaction Biology) HotSpot assay.
From the text: as §1, §2, §3

For orientation: IC50 means the point on the concentration scale where inhibition reaches its midpoint. Low values mean greater potency, high ones weaker potency. As for `COc1cc2ncc(-c3cc(-c4ccccc4)cc(N[C@@H]4CCCNC4)n3)n2nc1C1CC1` [Compound 55a, (R)-6-(6-cyclopropyl-7-methoxyimidazo[1,2-b]pyridazin-3-yl)-4-phenyl-N-(piperidin-3-yl)pyridin-2-amine], the IC50 was determined as 4010 nM at IRAK1, 4110 nM against IRAK4 and 741 nM against FLT3.
For `COc1cc2ncc(-c3cc(-c4ccccc4)cc(N[C@H]4CNCC[C@@H]4F)n3)n2nc1C1CC1` [Compound 53a, 6-(6-cyclopropyl-7-methoxyimidazo[1,2-b]pyridazin-3-yl)-N-((3S,4S)-4-fluoropiperidin-3-yl)-4-phenylpyridin-2-amine], in that order: 4590 nM, 3190 nM and 299 nM.
For `COc1cc2ncc(-c3cc(Oc4ccccc4)cc(N[C@H]4CNC[C@@H]4F)n3)n2nc1C1CC1` [Compound 60a, 6-(6-cyclopropyl-7-methoxyimidazo[1,2-b]pyridazin-3-yl)-N-((3S,4S)-4-fluoropyrrolidin-3-yl)-4-phenoxypyridin-2-amine], in that order: over 10000 nM, over 10000 nM and 277 nM.
For `COc1cc2ncc(-c3ccc(C#N)c(N[C@H]4CNC[C@@H]4F)n3)n2nc1C1CC1` [Compound 27a, 6-(6-cyclopropyl-7-methoxyimidazo[1,2-b]pyridazin-3-yl)-2-(((3S,4S)-4-fluoropyrrolidin-3-yl)amino) nicotinonitrile], in that order: 5 nM, under 0.5 nM and under 0.5 nM.
Regarding `COc1cc2ncc(-c3nc(N[C@@H]4CCCNC4)c(F)cc3F)n2nc1N1CCCS1(=O)=O` [Compound 68a, (R)-2-(3-(3,5-difluoro-6-(piperidin-3-ylamino)pyridin-2-yl)-7-methoxyimidazo[1,2-b]pyridazin-6-yl)isothiazolidine 1,1-dioxide], the IC50 is 19 nM against IRAK1, 7 nM on IRAK4 and under 0.5 nM on FLT3.
In the same order, the values of `COc1cc2ncc(-c3cc(C)cc(N[C@H]4CNCC[C@@H]4F)n3)n2nc1C1CC1` [Compound 52a, 6-(6-cyclopropyl-7-methoxyimidazo[1,2-b]pyridazin-3-yl)-N-((3S,4S)-4-fluoropiperidin-3-yl)-4-methylpyridin-2-amine] are over 10000 nM, 1740 nM and 1 nM.
On to `COc1cc2ncc(-c3nc(N[C@H]4CNCC[C@@H]4F)ccc3C#N)n2nc1C1CC1` [Compound 31a, 2-(6-cyclopropyl-7-methoxyimidazo[1,2-b]pyridazin-3-yl)-6-(((3S,4S)-4-fluoropiperidin-3-yl)amino)nicotinonitrile], for which the IC50 at IRAK1 turned out to be 1110 nM; against IRAK4 it was 10 nM; against FLT3, 43 nM.
In the same order, the values of `COc1ccc(-c2cnc3cc(OC)c(C4CC4)nn23)nc1N[C@@H]1CCCNC1` [Compound 34a, (R)-6-(6-cyclopropyl-7-methoxyimidazo[1,2-b]pyridazin-3-yl)-3-methoxy-N-(piperidin-3-yl)pyridin-2-amine] are over 10000 nM, 202 nM and under 0.5 nM.
In the same order, the values of `COc1cc2ncc(-c3cc(C4CC4)cc(N[C@@H]4CCCNC4)n3)n2nc1C1CC1` [Compound 58a, (R)-4-cyclopropyl-6-(6-cyclopropyl-7-methoxyimidazo[1,2-b]pyridazin-3-yl)-N-(piperidin-3-yl)pyridin-2-amine] are over 10000 nM, over 10000 nM and 5 nM.
As to `COc1cc2ncc(-c3nc(N[C@H]4CNCC[C@@H]4F)c(F)cc3F)n2nc1N1CCCS1(=O)=O` [Compound 70a, 2-(3-(3,5-difluoro-6-(((3S,4S)-4-fluoropiperidin-3-yl)amino)pyridin-2-yl)-7-methoxyimidazo[1,2-b]pyridazin-6-yl)isothiazolidine 1,1-dioxide], the half-inhibitory concentration (IC50) against IRAK1 is 60 nM; against IRAK4 it was 10 nM; against FLT3 it was under 0.5 nM.
